{
  "source": "paper PMC5218480",
  "about": "(PLoS ONE, 2017)",
  "system": "MV-4-11 cells",
  "assay": "Gene expression microarray analysis (Affymetrix PrimeView) and GSEA",
  "type": "cell-based, human",
  "design": "RFU PODN (11730768_x_at) / Fold change /veh PODN (11730768_x_at) / RFU LINC00158 (11744669_a_at) / Fold change /veh LINC00158 (11744669_a_at) / RFU DUSP10 (11751237_a_at) / Fold change /veh DUSP10 (11751237_a_at) / RFU ID3 (11757404_x_at) / Fold change /veh ID3 (11757404_x_at) / RFU PLEKHG5 (11737974_s_at) / Fold change /veh PLEKHG5 (11737974_s_at) / RFU LRRC4B (11730491_at) / Fold change /veh LRRC4B (11730491_at) / RFU GIMAP4 (11747438_a_at) / Fold change /veh GIMAP4 (11747438_a_at) / RFU KRT8 (11758183_x_at) / Fold change /veh KRT8 (11758183_x_at) / RFU CNN1 (11734310_a_at) / Fold change /veh CNN1 (11734310_a_at) / RFU VPS37D (11726825_at) / Fold change /veh VPS37D (11726825_at) / RFU C10orf10 (11716522_x_at) / Fold change /veh C10orf10 (11716522_x_at) / RFU KIR2DL2 /// KIR2DL4 /// KIR2DL5A /// KIR2DL5B /// KIR2DS1 /// KIR2DS2 /// KIR2DS3 /// KIR2DS4 /// KIR3DL3 /// KIR3DL3 /// KIR3DS1 (11738374_at) / Fold change /veh KIR2DL2 /// KIR2DL4 /// KIR2DL5A /// KIR2DL5B /// KIR2DS1 /// KIR2DS2 /// KIR2DS3 /// KIR2DS4 /// KIR3DL3 /// KIR3DL3 /// KIR3DS1 (11738374_at) / RFU C1QL1 (11718748_at) / Fold change /veh C1QL1 (11718748_at) / RFU TMPRSS4 (11747572_a_at) / Fold change /veh TMPRSS4 (11747572_a_at) / RFU HAMP (11756126_x_at) / Fold change /veh HAMP (11756126_x_at) / RFU RNFT2 (11725882_a_at) / Fold change /veh RNFT2 (11725882_a_at) / RFU NR4A2 (11747474_a_at) / Fold change /veh NR4A2 (11747474_a_at) / RFU ABCC12 (11746883_a_at) / Fold change /veh ABCC12 (11746883_a_at) / RFU TMEM136 (11760407_x_at) / Fold change /veh TMEM136 (11760407_x_at) / RFU CLDN22 /// WWC2 (11732394_at) / Fold change /veh CLDN22 /// WWC2 (11732394_at) / RFU HLA-DPB1 (11760878_x_at) / Fold change /veh HLA-DPB1 (11760878_x_at) / RFU SPINT1 (11716480_a_at) / Fold change /veh SPINT1 (11716480_a_at) / RFU GAP43 (11754022_s_at) / Fold change /veh GAP43 (11754022_s_at) / RFU A4GNT (11735810_at) / Fold change /veh A4GNT (11735810_at) / RFU PRB3 (11715151_x_at) / Fold change /veh PRB3 (11715151_x_at) / RFU TUBB4B (11761932_at) / Fold change /veh TUBB4B (11761932_at) / RFU CAPN14 (11732068_a_at) / Fold change /veh CAPN14 (11732068_a_at) / RFU TMCC2 (11721928_a_at) / Fold change /veh TMCC2 (11721928_a_at) / RFU IRGQ (11745062_a_at) / Fold change /veh IRGQ (11745062_a_at) / RFU FAM174B (11720279_a_at) / Fold change /veh FAM174B (11720279_a_at) / RFU TMPRSS4 (11748680_a_at) / Fold change /veh TMPRSS4 (11748680_a_at) / RFU FAM212B (11763350_a_at) / Fold change /veh FAM212B (11763350_a_at) / RFU PLEKHG5 (11743358_a_at) / Fold change /veh PLEKHG5 (11743358_a_at) / RFU ZSCAN30 (11745921_a_at) / Fold change /veh ZSCAN30 (11745921_a_at) / RFU CMKLR1 (11741424_a_at) / Fold change /veh CMKLR1 (11741424_a_at) / RFU LOC101060620 /// MAPK8IP1 (11723275_at) / Fold change /veh LOC101060620 /// MAPK8IP1 (11723275_at) / RFU SPTSSB (11747773_x_at) / Fold change /veh SPTSSB (11747773_x_at) / RFU PRSS12 (11739890_at) / Fold change /veh PRSS12 (11739890_at) / RFU BIN1 (11741810_x_at) / Fold change /veh BIN1 (11741810_x_at) / RFU WNT11 (11732464_a_at) / Fold change /veh WNT11 (11732464_a_at) / RFU C10orf10 (11716521_a_at) / Fold change /veh C10orf10 (11716521_a_at) / RFU C5orf56 (11738089_at) / Fold change /veh C5orf56 (11738089_at) / RFU CYB561 (11721691_x_at) / Fold change /veh CYB561 (11721691_x_at) / RFU ANKRD19P (11752326_a_at) / Fold change /veh ANKRD19P (11752326_a_at) / RFU OR2T12 /// OR2T33 /// OR2T8 (11738714_s_at) / Fold change /veh OR2T12 /// OR2T33 /// OR2T8 (11738714_s_at) / RFU VCAN (11748164_a_at) / Fold change /veh VCAN (11748164_a_at) / RFU JSRP1 (11732532_at) / Fold change /veh JSRP1 (11732532_at) / RFU KRTAP10-11 (11738290_x_at) / Fold change /veh KRTAP10-11 (11738290_x_at) / RFU MYO3A (11730013_a_at) / Fold change /veh MYO3A (11730013_a_at) / RFU EBF3 (11725865_a_at) / Fold change /veh EBF3 (11725865_a_at) / RFU CAMK2N1 (11719241_x_at) / Fold change /veh CAMK2N1 (11719241_x_at) / RFU C5orf56 (11738088_a_at) / Fold change /veh C5orf56 (11738088_a_at) / RFU OLFML3 (11715873_a_at) / Fold change /veh OLFML3 (11715873_a_at) / RFU LOC100653217 /// NTM (11731650_a_at) / Fold change /veh LOC100653217 /// NTM (11731650_a_at) / RFU MAPK11 (11762145_a_at) / Fold change /veh MAPK11 (11762145_a_at) / RFU FIZ1 (11724087_x_at) / Fold change /veh FIZ1 (11724087_x_at) / RFU OASL (11726364_x_at) / Fold change /veh OASL (11726364_x_at) / RFU SOX15 (11748057_x_at) / Fold change /veh SOX15 (11748057_x_at) / RFU CD79A (11719716_a_at) / Fold change /veh CD79A (11719716_a_at) / RFU HIST1H1D (11736915_at) / Fold change /veh HIST1H1D (11736915_at) / RFU CASKIN2 (11723855_a_at) / Fold change /veh CASKIN2 (11723855_a_at) / RFU LOC730098 (11760151_x_at) / Fold change /veh LOC730098 (11760151_x_at) / RFU OR4N2 (11742367_at) / Fold change /veh OR4N2 (11742367_at) / RFU PRRT2 (11749266_a_at) / Fold change /veh PRRT2 (11749266_a_at) / RFU SNX32 (11753110_a_at) / Fold change /veh SNX32 (11753110_a_at) / RFU CDHR5 (11726645_a_at) / Fold change /veh CDHR5 (11726645_a_at) / RFU RCAN1 (11760418_a_at) / Fold change /veh RCAN1 (11760418_a_at) / RFU FAM167A (11723789_a_at) / Fold change /veh FAM167A (11723789_a_at) / RFU FAM26E (11764081_at) / Fold change /veh FAM26E (11764081_at) / RFU ISYNA1 (11749810_s_at) / Fold change /veh ISYNA1 (11749810_s_at) / RFU ACY1 (11761880_at) / Fold change /veh ACY1 (11761880_at) / RFU 11764098_at / Fold change /veh 11764098_at / RFU SAMD14 (11745864_x_at) / Fold change /veh SAMD14 (11745864_x_at) / RFU NPB (11741838_a_at) / Fold change /veh NPB (11741838_a_at) / RFU TMPRSS6 (11731388_a_at) / Fold change /veh TMPRSS6 (11731388_a_at) / RFU KRTAP10-2 (11738614_at) / Fold change /veh KRTAP10-2 (11738614_at) / RFU ARHGAP8 /// PRR5-ARHGAP8 (11727945_x_at) / Fold change /veh ARHGAP8 /// PRR5-ARHGAP8 (11727945_x_at) / RFU KRTAP5-7 /// NADSYN1 (11734609_at) / Fold change /veh KRTAP5-7 /// NADSYN1 (11734609_at) / RFU RASL12 (11751679_a_at) / Fold change /veh RASL12 (11751679_a_at) / RFU CDKN2B (11736163_a_at) / Fold change /veh CDKN2B (11736163_a_at) / RFU PRF1 (11729649_at) / Fold change /veh PRF1 (11729649_at) / RFU, ZNF638 /// ZNF638-IT1 / Fold change vs veh, ZNF638 /// ZNF638-IT1 / RFU, PANK3 / Fold change vs veh, PANK3 / RFU, SH3YL1 / Fold change vs veh, SH3YL1 / RFU, ZEB2 / Fold change vs veh, ZEB2 / RFU, NRIP1 / Fold change vs veh, NRIP1 / RFU, PTTG1IP / Fold change vs veh, PTTG1IP / RFU, CAPN2 / Fold change vs veh, CAPN2 / RFU, MED14 / Fold change vs veh, MED14 / RFU, SNORA58 / Fold change vs veh, SNORA58 / RFU, C1orf63 / Fold change vs veh, C1orf63 / RFU, LRRFIP1 / Fold change vs veh, LRRFIP1 / RFU, NDUFAF7 / Fold change vs veh, NDUFAF7 / RFU, SLC12A2 / Fold change vs veh, SLC12A2 / RFU, IBTK / Fold change vs veh, IBTK / RFU, ESF1 / Fold change vs veh, ESF1 / Fold change vs veh, TMEM50B / RFU, TAOK1 / Fold change vs veh, TAOK1 / RFU, ACBD3 / Fold change vs veh, ACBD3 / RFU, TMA16 / Fold change vs veh, TMA16 / RFU, RWDD3 / Fold change vs veh, RWDD3 / RFU, BCAT1 / Fold change vs veh, BCAT1 / RFU, EDEM3 / Fold change vs veh, EDEM3 / RFU, TMEM33 / Fold change vs veh, TMEM33 / RFU, WDR75 / Fold change vs veh, WDR75 / RFU, AHCTF1 / Fold change vs veh, AHCTF1 / RFU, TFRC / Fold change vs veh, TFRC / RFU, ZDHHC17 / Fold change vs veh, ZDHHC17 / RFU, NOM1 / Fold change vs veh, NOM1 / RFU, ARL8B / Fold change vs veh, ARL8B / RFU, ZBTB11 / Fold change vs veh, ZBTB11 / RFU, TAMM41 / Fold change vs veh, TAMM41 / RFU, KIAA1704 /// LOC100996395 / Fold change vs veh, KIAA1704 /// LOC100996395 / RFU, ING1 / Fold change vs veh, ING1 / RFU, TRMT61B / Fold change vs veh, TRMT61B / RFU, FUBP3 / Fold change vs veh, FUBP3 / RFU, TP53 / Fold change vs veh, TP53 / RFU, TNKS2 / Fold change vs veh, TNKS2 / RFU, ZFP14 / Fold change vs veh, ZFP14 / RFU, ACTR2 / Fold change vs veh, ACTR2 / RFU, PPP3R1 / Fold change vs veh, PPP3R1 / RFU, PIK3R1 / Fold change vs veh, PIK3R1 / RFU, HNRNPA1 / Fold change vs veh, HNRNPA1 / RFU, RNF170 / Fold change vs veh, RNF170 / RFU, ZNF28 / Fold change vs veh, ZNF28 / RFU, RNGTT / Fold change vs veh, RNGTT / RFU, OGT / Fold change vs veh, OGT / RFU, BRD1 / Fold change vs veh, BRD1 / RFU, MARS / Fold change vs veh, MARS / RFU, ZNF655 / Fold change vs veh, ZNF655 / RFU, FAHD1 / Fold change vs veh, FAHD1 / RFU, BDP1 / Fold change vs veh, BDP1 / RFU, LRRCC1 / Fold change vs veh, LRRCC1 / RFU, ARID1A / Fold change vs veh, ARID1A / RFU, ZNF146 / Fold change vs veh, ZNF146 / RFU, ZNF330 / Fold change vs veh, ZNF330 / RFU, GPN3 / Fold change vs veh, GPN3 / RFU, C9orf123 / Fold change vs veh, C9orf123 / RFU, N4BP2L2 / Fold change vs veh, N4BP2L2 / RFU, ARFIP1 / Fold change vs veh, ARFIP1 / RFU, FAM179B / Fold change vs veh, FAM179B / RFU, BCL10 / Fold change vs veh, BCL10 / RFU, UHRF1BP1L / Fold change vs veh, UHRF1BP1L / RFU, BET1 / Fold change vs veh, BET1 / RFU, CNOT2 / Fold change vs veh, CNOT2 / RFU, ZNF268 / Fold change vs veh, ZNF268 / Fold change vs veh, ZNF507 / RFU, DGCR2 / Fold change vs veh, DGCR2 / RFU, WDSUB1 / Fold change vs veh, WDSUB1 / Fold change vs veh, HSP90B1 /// MIR3652 / RFU, ADSS / Fold change vs veh, ADSS / RFU, GK / Fold change vs veh, GK / RFU, ZNF148 / Fold change vs veh, ZNF148 / RFU, TAF9 / Fold change vs veh, TAF9 / RFU, SLC1A5 / Fold change vs veh, SLC1A5 / RFU, SLMO2 / Fold change vs veh, SLMO2 / RFU, ABCC4 / Fold change vs veh, ABCC4 / RFU, LOC101060439 /// RAP1B / Fold change vs veh, LOC101060439 /// RAP1B / RFU, RFX7 / Fold change vs veh, RFX7 / RFU, GTPBP10 / Fold change vs veh, GTPBP10 / RFU, CNEP1R1 / Fold change vs veh, CNEP1R1 / RFU, BIVM-ERCC5 /// ERCC5 / Fold change vs veh, BIVM-ERCC5 /// ERCC5 / RFU, ILF3 / Fold change vs veh, ILF3 / RFU 11762660_at / Fold change /veh 11762660_at / RFU VCAN (11757783_s_at) / Fold change /veh VCAN (11757783_s_at) / RFU DDX43 (11728927_at) / Fold change /veh DDX43 (11728927_at) / RFU KRT8 (11758188_x_at) / Fold change /veh KRT8 (11758188_x_at) / RFU NKD1 (11759106_at) / Fold change /veh NKD1 (11759106_at) / RFU SRD5A1 (11742802_a_at) / Fold change /veh SRD5A1 (11742802_a_at) / RFU TPSAB1 /// TPSB2 (11721975_s_at) / Fold change /veh TPSAB1 /// TPSB2 (11721975_s_at) / RFU GSTM3 (11746129_a_at) / Fold change /veh GSTM3 (11746129_a_at) / RFU IL23R (11737362_x_at) / Fold change /veh IL23R (11737362_x_at) / RFU TMEM51 (11727254_a_at) / Fold change /veh TMEM51 (11727254_a_at) / RFU PIWIL2 (11732686_x_at) / Fold change /veh PIWIL2 (11732686_x_at) / RFU ORM1 (11744905_x_at) / Fold change /veh ORM1 (11744905_x_at) / RFU CCDC152 (11743942_at) / Fold change /veh CCDC152 (11743942_at) / RFU ECM1 (11717891_a_at) / Fold change /veh ECM1 (11717891_a_at) / RFU IL23R (11748794_a_at) / Fold change /veh IL23R (11748794_a_at) / RFU TNFAIP8L3 (11732012_x_at) / Fold change /veh TNFAIP8L3 (11732012_x_at) / RFU MBOAT4 (11741988_at) / Fold change /veh MBOAT4 (11741988_at) / RFU 11764193_at / Fold change /veh 11764193_at / RFU TMEM53 (11763286_at) / Fold change /veh TMEM53 (11763286_at) / RFU MAGEB2 (11727129_at) / Fold change /veh MAGEB2 (11727129_at) / RFU TMEM200A (11744735_a_at) / Fold change /veh TMEM200A (11744735_a_at) / RFU CCDC152 (11751479_a_at) / Fold change /veh CCDC152 (11751479_a_at) / RFU FAM211A (11726209_a_at) / Fold change /veh FAM211A (11726209_a_at) / RFU RGS16 (11746705_a_at) / Fold change /veh RGS16 (11746705_a_at) / RFU VCAN (11755009_s_at) / Fold change /veh VCAN (11755009_s_at) / RFU RHOB (11743442_s_at) / Fold change /veh RHOB (11743442_s_at) / RFU RGS16 (11720943_a_at) / Fold change /veh RGS16 (11720943_a_at) / RFU RGS16 (11720944_at) / Fold change /veh RGS16 (11720944_at) / RFU, VPS4B / Fold change vs veh, VPS4B / RFU, CREB1 / Fold change vs veh, CREB1 / RFU, DNAJC13 / Fold change vs veh, DNAJC13 / RFU, GNAQ / Fold change vs veh, GNAQ / RFU, CDK5R1 / Fold change vs veh, CDK5R1 / RFU, ZRANB3 / Fold change vs veh, ZRANB3 / RFU, CUL4A / Fold change vs veh, CUL4A / RFU, CCNY / Fold change vs veh, CCNY / RFU, UFL1 / Fold change vs veh, UFL1 / RFU, COG3 / Fold change vs veh, COG3 / RFU, DIAPH2 / Fold change vs veh, DIAPH2 / RFU, SKA2 / Fold change vs veh, SKA2 / RFU, AFF3 / Fold change vs veh, AFF3 / RFU, LMF1 / Fold change vs veh, LMF1 / RFU, IPO11 / Fold change vs veh, IPO11 / RFU, DFFB / Fold change vs veh, DFFB / RFU, FOXP1 / Fold change vs veh, FOXP1 / RFU, CARD8 / Fold change vs veh, CARD8 / RFU, STRN3 / Fold change vs veh, STRN3 / RFU, ADK / Fold change vs veh, ADK / RFU, RASSF2 / Fold change vs veh, RASSF2 / RFU, WIPF1 / Fold change vs veh, WIPF1 / RFU, LARP1B / Fold change vs veh, LARP1B / RFU, RASA1 / Fold change vs veh, RASA1 / RFU, RB1 / Fold change vs veh, RB1 / RFU, PPFIA1 / Fold change vs veh, PPFIA1 / RFU, MAT2A / Fold change vs veh, MAT2A / RFU, CCT5 / Fold change vs veh, CCT5 / RFU, WDR92 / Fold change vs veh, WDR92 / RFU, CUX1 / Fold change vs veh, CUX1 / RFU, TTC7A / Fold change vs veh, TTC7A / RFU, TMEM135 / Fold change vs veh, TMEM135 / RFU, DEPTOR / Fold change vs veh, DEPTOR / RFU, CPM / Fold change vs veh, CPM / RFU, DNAJB6 / Fold change vs veh, DNAJB6 / RFU, CACNA2D3 / Fold change vs veh, CACNA2D3 / RFU, DTX4 / Fold change vs veh, DTX4 / RFU, TFCP2 / Fold change vs veh, TFCP2 / RFU, GMCL1 /// GMCL1P1 / Fold change vs veh, GMCL1 /// GMCL1P1 / RFU, AEBP2 / Fold change vs veh, AEBP2 / RFU, SNHG1 /// SNORD22 /// SNORD25 /// SNORD26 /// SNORD27 /// SNORD28 /// SNORD29 /// SNORD31 / Fold change vs veh, SNHG1 /// SNORD22 /// SNORD25 /// SNORD26 /// SNORD27 /// SNORD28 /// SNORD29 /// SNORD31 / Fold change (Aza/veh), C12orf56 (ProbeSet 11735607_a_at) / Fold change (ACY-1035/veh), C12orf56 (ProbeSet 11735607_a_at) / Fold change (Aza/veh), FGFR1OP (ProbeSet 11751329_s_at) / Fold change (ACY-1035/veh), FGFR1OP (ProbeSet 11751329_s_at) / Fold change (Aza/veh), VPS36 (ProbeSet 11739960_a_at) / Fold change (ACY-1035/veh), VPS36 (ProbeSet 11739960_a_at) / RFU SYPL1 (11715823_x_at) / Fold change /veh SYPL1 (11715823_x_at) / RFU IGFBP7 (11715501_s_at) / Fold change /veh IGFBP7 (11715501_s_at) / RFU REEP3 (11722064_at) / Fold change /veh REEP3 (11722064_at) / RFU IGLL1 (11728026_x_at) / Fold change /veh IGLL1 (11728026_x_at): dose or concentration left out as unconfirmed",
  "settings": "MV-4-11 cells, 48 hours",
  "data": [
    {"compound": "Nc1ccc(-c2cccs2)cc1NC(=O)c1ccc2c(c1)cc(C1CC1)n2CCN1CCOCC1", "note": "[ACY-1035]", "values": [
      {"measurement": "RFU TMPRSS4 (11747572_a_at)", "result": 57.40, "unit": "RFU"}
    ]}
  ]
}
